# Measured values taken from patent US6541463B1, “Inhibitors of type 5 and type 3 17β-hydroxysteroid dehydrogenase and methods for their use” (Endorecherche, Inc., priority 1998, dated 2003).
# Target: T1, glucocorticoid receptor (Rattus norvegicus, UniProt P06536)
# T1 construct: from tissue; host or cells: liver cytosol of male Sprague-Dawley rats
# T1 sequence (P06536 1-795): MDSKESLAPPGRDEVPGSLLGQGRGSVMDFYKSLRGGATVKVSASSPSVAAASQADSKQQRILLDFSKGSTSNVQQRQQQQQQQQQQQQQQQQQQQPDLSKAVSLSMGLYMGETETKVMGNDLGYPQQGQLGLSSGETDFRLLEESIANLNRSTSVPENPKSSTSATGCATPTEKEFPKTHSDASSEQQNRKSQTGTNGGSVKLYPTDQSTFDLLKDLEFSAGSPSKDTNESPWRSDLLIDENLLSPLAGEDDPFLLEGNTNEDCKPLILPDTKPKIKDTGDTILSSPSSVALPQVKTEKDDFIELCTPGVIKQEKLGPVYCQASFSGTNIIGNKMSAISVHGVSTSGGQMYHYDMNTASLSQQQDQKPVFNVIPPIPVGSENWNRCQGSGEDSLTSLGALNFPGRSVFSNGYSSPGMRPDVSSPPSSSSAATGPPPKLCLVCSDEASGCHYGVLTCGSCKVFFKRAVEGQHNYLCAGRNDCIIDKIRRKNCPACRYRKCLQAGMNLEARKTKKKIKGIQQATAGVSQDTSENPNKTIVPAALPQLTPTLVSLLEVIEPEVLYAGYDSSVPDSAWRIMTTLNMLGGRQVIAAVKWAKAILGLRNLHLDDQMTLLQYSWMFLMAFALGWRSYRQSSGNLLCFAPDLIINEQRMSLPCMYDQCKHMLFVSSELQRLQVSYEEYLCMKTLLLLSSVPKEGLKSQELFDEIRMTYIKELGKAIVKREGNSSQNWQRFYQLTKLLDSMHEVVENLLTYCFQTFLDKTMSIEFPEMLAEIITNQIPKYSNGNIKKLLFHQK
# Assay: Glucocorticoid receptor assay: inhibition of [3H]-dexamethasone binding, liver cytosol
# Conditions: for inhibition at 1 µM: read-out: % Inhibition Glucocorticold Receptor E^−6; for inhibition at 0.01 µM: read-out: % Inhibition Glucocorticold Receptor E^−8
# Protocol: The manner in which the percentage of inhibition is determined is described in “Other Tests; F-Glucocorticoid Receptor Assay”.
# [6,7-^3H(N)]-Dexamethasone (39 Ci/mmol) was purchased from New England Nuclear (Lachine, Québec, Canada) while unlabeled dexametasone was obtained from Steraloids (Wilton, N.H.). All other chemicals were of analytical grade.
# Stock solutions of the unlabeled steroids were kept at 4° C. in ethanol. The desired steroid solutions were then prepared by appropriate dilution in buffer B (10 mM Tris-HCl, 1.5 mM EDTA, 10 mM α-monothioglycerol, pH 7.4) containing 30% ethanol.
# Male Sprague-Dawley rats weighing 200-300 g were obtained from Charles-River Inc. (St-Constant, Québec, Canada). The rats were killed by cervical dislocation and the liver were rapidly removed, dissected free from adhering tissue and frozen on dry-ice. Tissues were kept at −80° C. until use.
# All procedures were performed at 4° C. Tissues were eminced and homogenized in 10 vol (w/v) of buffer A (25 mM Tris-HCl, 1.5 mM EDTA, 10 mM α-monothioglycerol, 10% glycerol, 10 mM sodium molybdate, pH 7.4) using a Polytron PT-10 homogenizer (Brinkmann Instruments, Canada) at a setting of 5 for two periods of 10 sec, with intervals of 10 sec for cooling. The homogenate was then centrifuged at 105,000×g for 90 min. The supernatant was used immediately for assay.
# Glucocorticoid binding was measured using the dextran-coated charcoal adsorption technique. Incubations were performed at 0-4° C. for 16-18 h using 100 μl of cytosol, 100 μl of [^3H]-Dexamethasone (5 nM final) and 100 μl of unlabeled compounds at the indicated concentrations. Each concentration was done in triplicate. Assay was ended with 300 μl of DCC (2.5% Norit A and 0.25% Dextran T-70 in Buffer B). After 10 min of incubation, tubes were centrifuged at 2,000×g for 10 min. and decanted in vials with 6 ml of BCS liquid scintillation (New England Nuclear, Dupont). The radioactivity was measured in a Beckman counter at a counting efficiency of 35%.
compound,measurement,setting,value
COCCOc1cc2c(cc1C#N)C1CC[C@@]3(C)C(CC[C@@]34CCC(C)(C)C(=O)O4)C1CC2 (stereo partly shown) [EM-1396],inhibition at 1 µM,"Table 4′, E^−6",1%
same,inhibition at 0.01 µM,"Table 4′, E^−8",0%
"CC1(C)CC[C@@]2(CCC3C4CCc5cc6oncc6cc5C4CC[C@@]32C)OC1=O (stereo partly drawn) [EM-1407-CS, 1,3,5(10)-estratrien-(2,3-oximino)-17(R)-spiro-2′-(5′,5′-dimethyl-6′-oxo)tetrahydropyran]",inhibition at 1 µM,"Table 4′, E^−6",0%
same,inhibition at 0.01 µM,"Table 4′, E^−8",0%
CCS(=O)(=O)Oc1ccc2c(c1)CCC1C2CCC2(C)C1CCC21CCC(C)(C)C(=O)O1 (stereo not shown) [EM-1364-CS],inhibition at 1 µM,"Table 4′, E^−6",3%
same,inhibition at 0.01 µM,"Table 4′, E^−8",0%
CC1(C)CCC2(CCC3C4CCc5cc(O)c([N+](=O)[O-])cc5C4CCC32C)OC1=O (stereo not shown) [EM-1125-CS],inhibition at 1 µM,"Table 4′, E^−6",1%
same,inhibition at 0.01 µM,"Table 4′, E^−8",0%
"COCCOc1ccc2c(c1)CCC1C2CCC2(C)C1CCC21CCC(C)(C)C(=O)O1 [EM-1368-CS, 3-Methoxyethoxy-1,3,5(10)-estratrien-17(R)-spiro-2′-(5′,5′-dimethyl-6′-oxo)-tetrahydropyran]",inhibition at 1 µM,"Table 4′, E^−6",3%
same,inhibition at 0.01 µM,"Table 4′, E^−8",3%
CCC(=O)O[C@]1(C(C)=O)CCC2C3C=C(C)C4=CC(=O)C[C@H](C)[C@]4(C)C3CC[C@@]21C (stereo partly shown) [CS-243],% Inhibition Glucocorticoid Receptor,E^−6,29%
same,% Inhibition Glucocorticoid Receptor,E^−8,0%
CN(C)CCOc1ccc2c(c1)CCC1C2CCC2(C)C1CCC21CCC(C)(C)C(=O)O1 (stereo not shown) [EM-1389-CS],inhibition at 1 µM,"Table 4′, E^−6",3%
same,inhibition at 0.01 µM,"Table 4′, E^−8",0%
CC(=O)O[C@]1(C(=O)N(C)C)CCC2C3C=C(C)C4=CC(=O)CC[C@]4(C)C3CC[C@@]21C (stereo partly shown) [EM-1159],% Inhibition Glucocorticoid Receptor,E^−6,59%
same,% Inhibition Glucocorticoid Receptor,E^−8,8%
"COC(=O)CCCC(=O)O[C@]1(C(C)=O)CC[C@H]2[C@@H]3C=C(C)C4=CC(=O)CC[C@]4(C)[C@H]3CC[C@@]21C [EM-1007, 6-Methyl-4,6-pregnadien-17α-ol-3,20-dione 4′-Carbomethoxybutyrate]",% Inhibition Glucocorticoid Receptor,E^−6,0%
same,% Inhibition Glucocorticoid Receptor,E^−8,0%
CC1(C)CC[C@@]2(CC[C@H]3[C@@H]4CCc5c(cc(Br)c(O)c5Br)[C@H]4CC[C@@]32C)OC1=O [EM-1382-CS],% Inhibition Glucocorticold Receptor E^−6,"Table 4′, E^−6",4%
same,% Inhibition Glucocorticold Receptor E^−8,"Table 4′, E^−8",2%
"COCCOc1cc2c(cc1C(=O)O)C1CCC3(C)C(CCC34CCC(C)(C)C(=O)O4)C1CC2 [EM-1405, 2-Carboxy-3-(2″-methoxyethyloxy)-1,3,5(10)-estratrien-17(R)-spiro-2′-(5′,5′-dimethyl-6′-oxo)tetrahydropyran]",inhibition at 1 µM,"Table 4′, E^−6",0%
same,inhibition at 0.01 µM,"Table 4′, E^−8",0%
COc1cc2c(cc1C)C1CCC3(C)C(CCC34CCC(C)(C)C(=O)O4)C1CC2 (stereo not shown) [EM-1412-CS],inhibition at 1 µM,"Table 4′, E^−6",2%
same,inhibition at 0.01 µM,"Table 4′, E^−8",0%
COc1ccc2c(c1)CCC1C2CCC2(C)C1CCC21CCC(C)(C)C(=O)O1 (stereo not shown) [EM-1370],inhibition at 1 µM,"Table 4′, E^−6",0%
same,inhibition at 0.01 µM,"Table 4′, E^−8",3%
CC1(C)CC[C@@]2(CCC3C4CCc5cc(C(N)=O)ccc5C4CCC32C)OC1=O (stereo partly shown) [EM-1404],inhibition at 1 µM,"Table 4′, E^−6",0%
same,inhibition at 0.01 µM,"Table 4′, E^−8",0%
CCCC(=O)O[C@]1(C)C(=O)CCC2C3C=C(C)C4=CC(=O)CC[C@]4(C)C3CC[C@@]21C (stereo partly shown) [EM-1078],% Inhibition Glucocorticoid Receptor E^−6,E^−6,94%
same,% Inhibition Glucocorticoid Receptor E^−8,E^−8,20%
"CC(=O)O[C@]1(C(C)=O)CCC2C3C=C(C)C4=CC(=O)CC[C@]4(C)C3CC[C@@]21C (stereo partly shown) [megestrol acetate, reference compound]",% Inhibition Glucocorticoid Receptor,* E^−5,98* %
same,% Inhibition Glucocorticoid Receptor,* E^−7,17* %
same,% Inhibition Glucocorticoid Receptor,E^−6,82%
same,% Inhibition Glucocorticoid Receptor,E^−8,0%
"CC1CCC2(CCC3C4CCc5cc(O)c([N+](=O)[O-])cc5C4CCC32C)OC1=O [EM-1131, 2-Nitro-1,3,5(10)-estratrien-3-ol-17(R)-spiro-2′-(5′-methyl-6′-oxo)tetrahydropyran]",inhibition at 1 µM,"Table 4′, E^−6",0%
same,inhibition at 0.01 µM,"Table 4′, E^−8",0%
"COCCOc1cc2c(cc1C(N)=O)C1CC[C@@]3(C)C(CC[C@@]34CCC(C)(C)C(=O)O4)C1CC2 (stereo partly drawn) [EM-1424, 2-Carbamoyl-3-(2″-methoxyethyloxy)-1,3,5(10)-estratrien 17(R)-spiro-2′-(5′,5′-dimethyl-6′-oxo)tetrahydropyran]",inhibition at 1 µM,"Table 4′, E^−6",0%
same,inhibition at 0.01 µM,"Table 4′, E^−8",0%
"CC1CCC2(CCC3C4CCc5cc(O)c([N+](=O)[O-])cc5C4CCC32C)OC1=O [EM-1126, 2-Nitro-1,3,5(10)-estratrien-3-ol-17(R)-spiro-2′-(5′-methyl-6′-oxo)tetrahydropyran]",% Inhibition Glucocorticold Receptor E^−6,"Table 4′, E^−6",0%
same,% Inhibition Glucocorticold Receptor E^−8,"Table 4′, E^−8",0%
"CC1(C)CC[C@@]2(CCC3C4CCc5cc(C(=O)O)ccc5C4CC[C@@]32C)OC1=O (stereo partly drawn) [EM-1401, 3-Carboxy-1,3,5(10)-estratrien-17(R)-spiro-2′-(5′,5′-dimethyl-6′-oxo)tetrahydropyran]",inhibition at 1 µM,"Table 4′, E^−6",2%
same,inhibition at 0.01 µM,"Table 4′, E^−8",4%
COc1ccc(CC(=O)O[C@]2(C(C)=O)CCC3C4C=C(C)C5=CC(=O)C=C[C@]5(C)C4CC[C@@]32C)cc1 (stereo partly shown) [EM-1291],% Inhibition Glucocorticoid Receptor,E^−6,69%
same,% Inhibition Glucocorticoid Receptor,E^−8,1%
CCC[C@@H]1CC2C3C=CC4=CC(=O)CC[C@]4(C)C3CC[C@]2(C)C1=O (stereo partly shown) [EM-1097],% Inhibition Glucocorticoid Receptor E^−6,E^−6,0%
same,% Inhibition Glucocorticoid Receptor E^−8,E^−8,0%
CC12CCC3c4ccc(F)cc4CCC3C1CCC21CCCC(=O)O1 (stereo not shown) [EM-1170-CS],inhibition at 1 µM,"Table 4′, E^−6",3%
same,inhibition at 0.01 µM,"Table 4′, E^−8",4%
CC1(C)CCC2(CCC3C4CCc5cc(OS(C)(=O)=O)ccc5C4CCC32C)OC1=O (stereo not shown) [EM-1365-CS],inhibition at 1 µM,"Table 4′, E^−6",5%
same,inhibition at 0.01 µM,"Table 4′, E^−8",0%
"C[C@]12CCC3c4cc([N+](=O)[O-])c(O)cc4CCC3C1CC[C@@]21CCCC(=O)O1 (stereo partly drawn) [EM-1124, 2-Nitro-1,3,5(10)-estraetriene-3-ol-17(R)-spiro-2′-(6′-oxo)tetrahydropyran]",inhibition at 1 µM,"Table 4′, E^−6",1%
same,inhibition at 0.01 µM,"Table 4′, E^−8",1%
COc1c(Br)cc2c(c1Br)CCC1C2CCC2(C)C1CCC21CCC(C)(C)C(=O)O1 (stereo not shown) [EM-1385-CS],inhibition at 1 µM,"Table 4′, E^−6",5%
same,inhibition at 0.01 µM,"Table 4′, E^−8",0%
COc1ccc2c(c1)C(=O)CC1C2CC[C@@]2(C)C1CC[C@@]21CCC(C)(C)C(=O)O1 (stereo partly shown) [EM-1394],inhibition at 1 µM,"Table 4′, E^−6",2%
same,inhibition at 0.01 µM,"Table 4′, E^−8",3%
CC12C=CC(=O)C=C1C=CC1C2CCC2(C)C(=O)C3(CCCCC3)CC12 (stereo not shown) [CS-204],% Inhibition Glucocorticoid Receptor E^−6,E^−6,0%
same,% Inhibition Glucocorticoid Receptor E^−8,E^−8,0%
CC(C)C[C@@H]1CC2C3C=CC4=CC(=O)CC[C@]4(C)C3CC[C@]2(C)C1=O (stereo partly shown) [EM-1273-CS],% Inhibition Glucocorticoid Receptor E^−6,E^−6,1%
same,% Inhibition Glucocorticoid Receptor E^−8,E^−8,0%
CC1CCC2(CCC3C4CCc5ccccc5C4CCC32C)OC1=O (stereo not shown) [EM-1025],inhibition at 1 µM,"Table 4′, E^−6",0%
same,inhibition at 0.01 µM,"Table 4′, E^−8",0%
CC1(C)CCC2(CCC3C4CCc5c(cc(Cl)c(O)c5Cl)C4CCC32C)OC1=O (stereo not shown) [EM-1391-CS],inhibition at 1 µM,"Table 4′, E^−6",2%
same,inhibition at 0.01 µM,"Table 4′, E^−8",0%
"CCOc1ccc2c(c1)CCC1C2CC[C@@]2(C)C1CC[C@@]21CCC(C)(C)C(=O)O1 (stereo partly drawn) [EM-1369, 3-Ethoxy-1,3,5(10)-estratrien-17(R)-spiro-2′-(5′,5′-dimethyl-6′-oxo)-tetrahydropyran]",inhibition at 1 µM,"Table 4′, E^−6",2%
same,inhibition at 0.01 µM,"Table 4′, E^−8",1%
"C[C@]12CCC3c4ccc(O)cc4CCC3C1CC[C@@]21CCCC(=O)O1 (stereo partly drawn) [EM-919, 1,3,5(10)-estratrien-3-ol-17(R)-spiro-2′(6′-oxo)tetrahydropyran]",% Inhibition Glucocorticold Receptor *E^−5,"Table 4′, starred values, E^−5",33* %
same,% Inhibition Glucocorticold Receptor *E^−7,"Table 4′, starred values, E^−7",0* %
CCC[C@]1(F)CC2C3C=CC4=CC(=O)CC[C@]4(C)C3CC[C@]2(C)C1=O (stereo partly shown) [EM-1183],% Inhibition Glucocorticoid Receptor E^−6,E^−6,12%
same,% Inhibition Glucocorticoid Receptor E^−8,E^−8,0%
